Test results published in patent US20250387415A1, “COMPOSITIONS OF COPPER COMPLEXES” (University of Lancashire, priority 2022, published 2025).

How the values were obtained:
[1] = Maximum copper complex content (solubility / encapsulation) of lipid formulations; assay type: physicochemical
Description: Spatula or similar tools were used to blend the constituents until homogeneous. • Mixtures were heated (to 40-60° C.) using block heater.

[2] = background; cited from earlier work
[3] = Centrifugation (200 rpm for 5 min) of F01 encapsulation mixtures; assay type: physicochemical; details: encapsulated mixture in MO or DU, visibly homogeneous at room temperature before
Description: It was in fact possible to add up to 126 mg of CuASP in 1 g of MO (as per F01-CuASP-MO-E) and up to about 130 mg in 1 g of DU (as per F01-CuASP-DU-E) (FIG. 4). […] With mere mixing by spatula the formulation was again homogeneous thereby encapsulating excess CuASP in the lipid phase.
With mere mixing by spatula the formulation was again homogeneous thereby encapsulating excess CuSL in the lipid phase.

[4] = background; cited from earlier work; remark: listed apart in the source
[5] = Hydrated lipid systems (F02): transparency check method for maximum solubility / encapsulation; assay type: physicochemical
Description: Briefly, 1 mm thick transparent glass slide with a small well was filled with corresponding formulation and its ability to see-through was checked, as shown by photographs referenced in Table 2.
Briefly, 1 mm thick transparent glass slide with a small well was filled with corresponding formulation and its ability to see-through was checked, as shown by photographs referenced in Table 3.

[6] = background; cited from earlier work; remark: listed apart in the source
[7] = Solubility limit in cubosomes solution (F03 nanostructured dispersions), sedimentation; assay type: physicochemical
Description: The numbers in mg indicate CuASP content in 10 g cubosomes solution (formed of 0.5 g lipid+9.5 g of 0.5% F127 solution in water).

CC(=O)Oc1ccccc1C(=O)[O-].CC(=O)Oc1ccccc1C(=O)[O-].CC(=O)Oc1ccccc1C(=O)[O-].CC(=O)Oc1ccccc1C(=O)[O-].[Cu+2].[Cu+2] [CuASP, Copper (II) Aspirinate]
solubility in lipids ([1]; non-aqueous lipids (MO, DU), F01): 1 mg/g
amount possible to add (encapsulation) in 1 g of DU ([1]; non-aqueous, in 1 g of DU (F01-...-DU-E)): up to 130 mg
amount possible to add (encapsulation) in 1 g of MO ([1]; non-aqueous, in 1 g of MO (F01-...-MO-E)): up to 126 mg
solubility in water [2]: poorly soluble in water
sedimentation after centrifugation [3]: some part of the powder sedimented
irritancy to digestive track compared to aspirin [4]: less irritant
amount encapsulated in DU cubic phase ([5]; in 1.25 g cubic phase): 400 mg
amount encapsulated in DU cubic phase per g of lipid ([5]; viscous cubic phase in presence of water): About 533 mg per g of lipid
potency as an anti-inflammatory agent compared to aspirin [6]: more potent
solubility limit in cubosomes solution per g of lipid ([7]; 10 g cubosomes (0.5 g lipid + 9.5 g of 0.5% F127 solution)): 50 mg/g of lipid
content that was sedimented in cubosomes solution ([7]; in 10 g cubosomes (0.5 g lipid + 9.5 g of 0.5% F127 solution in water)): 26 mg
